Experimental data taken from PMC12090182, “Repurposing of the RIPK1-Selective Benzo[1,4]oxazepin-4-one Scaffold for the Development of a Type III LIMK1/2 Inhibitor” (ACS Chemical Biology, 2025).

Assays:
Format in all cases: cell-based
Conditions in all cases: HEK-293T; 1 μM inhibitor, HEK293T cells
BMP2K = BMP2K (Homo sapiens, UniProt Q9NSY1)
Procedure, shortened: (§1)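 HEK293T cells reverse-transfected with K192 kinase-NanoLuc vectors (FuGene HD) and expressed for 20 h. Tracer K10 added at kit-recommended concentrations, inhibitor at 1 μM in alternate wells. Filtered luminescence read at 450 nm donor and 610 nm acceptor; occupancy calculated per kinase.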

RPS6KA1 = RPS6KA1 (Homo sapiens, UniProt Q15418)
Procedure, shortened: as §1

STK17B = STK17B (Homo sapiens, UniProt O94768)
Procedure, shortened: as §1

FYN = FYN (Homo sapiens, UniProt P06241)
Procedure, shortened: as §1

RPS6KA3 = RPS6KA3 (Homo sapiens, UniProt P51812)
Procedure, shortened: as §1

MYLK2 = MYLK2 (Homo sapiens, UniProt Q9H1R3)
Procedure, shortened: as §1

CDK18 = CDK18 (Homo sapiens, UniProt Q07002)
Procedure, shortened: as §1

RPS6KA6 = RPS6KA6 (Homo sapiens, UniProt Q9UK32)
Procedure, shortened: as §1

PHKG1 = PHKG1 (Homo sapiens, UniProt Q16816)
Procedure, shortened: as §1

IRAK4 = IRAK4 (Homo sapiens, UniProt Q9NWZ3)
Procedure, shortened: as §1

SIK3 FL = SIK3 FL (Homo sapiens, UniProt Q9Y2K2)
Procedure, shortened: as §1

STK4 = STK4 (Homo sapiens, UniProt Q13043)
Procedure, shortened: as §1

STK33 = STK33 (Homo sapiens, UniProt Q9BYT3)
Procedure, shortened: as §1

PKMYT1 = PKMYT1 (Homo sapiens, UniProt Q99640)
Procedure, shortened: as §1

MAP3K12 = MAP3K12 (Homo sapiens, UniProt Q12852)
Procedure, shortened: as §1

AURKB = AURKB (Homo sapiens, UniProt Q96GD4)
Procedure, shortened: as §1

CDK17 = CDK17 (Homo sapiens, UniProt Q00537)
Procedure, shortened: as §1

IKBKE = IKBKE (Homo sapiens, UniProt Q14164)
Procedure, shortened: as §1

MAP3K2 = MAP3K2 (Homo sapiens, UniProt Q9Y2U5)
Procedure, shortened: as §1

CAMK1 = CAMK1 (Homo sapiens, UniProt Q14012)
Procedure, shortened: as §1

HIPK3 = HIPK3 (Homo sapiens, UniProt Q9H422)
Procedure, shortened: as §1

GAK = GAK (Homo sapiens, UniProt O14976)
Procedure, shortened: as §1

SBK3 = SBK3 (Homo sapiens, UniProt P0C264)
Procedure, shortened: as §1

SLK = SLK (Homo sapiens, UniProt Q9H2G2)
Procedure, shortened: as §1

PLK3 = PLK3 (Homo sapiens, UniProt Q9H4B4)
Procedure, shortened: as §1

TNK1 = TNK1 (Homo sapiens, UniProt Q13470)
Procedure, shortened: as §1

CDK9 = CDK9 (Homo sapiens, UniProt P50750)
Procedure, shortened: as §1

NEK11 = NEK11 (Homo sapiens, UniProt Q8NG66)
Procedure, shortened: as §1

TLK1 = TLK1 (Homo sapiens, UniProt Q9UKI8)
Procedure, shortened: as §1

LATS2 = LATS2 (Homo sapiens, UniProt Q9NRM7)
Procedure, shortened: as §1

NTRK1 = NTRK1 (Homo sapiens, UniProt P04629)
Procedure, shortened: as §1

STK36 = STK36 (Homo sapiens, UniProt Q9NRP7)
Procedure, shortened: as §1

NLK = NLK (Homo sapiens, UniProt Q9UBE8)
Procedure, shortened: as §1

MARK2 = MARK2 (Homo sapiens, UniProt Q7KZI7)
Procedure, shortened: as §1

EPHA7 = EPHA7 (Homo sapiens, UniProt Q15375)
Procedure, shortened: as §1

PLK2 = PLK2 (Homo sapiens, UniProt Q9NYY3)
Procedure, shortened: as §1

IGF1R = IGF1R (Homo sapiens, UniProt P08069)
Procedure, shortened: as §1

Chain of CAMK1 (Q14012 whole entry): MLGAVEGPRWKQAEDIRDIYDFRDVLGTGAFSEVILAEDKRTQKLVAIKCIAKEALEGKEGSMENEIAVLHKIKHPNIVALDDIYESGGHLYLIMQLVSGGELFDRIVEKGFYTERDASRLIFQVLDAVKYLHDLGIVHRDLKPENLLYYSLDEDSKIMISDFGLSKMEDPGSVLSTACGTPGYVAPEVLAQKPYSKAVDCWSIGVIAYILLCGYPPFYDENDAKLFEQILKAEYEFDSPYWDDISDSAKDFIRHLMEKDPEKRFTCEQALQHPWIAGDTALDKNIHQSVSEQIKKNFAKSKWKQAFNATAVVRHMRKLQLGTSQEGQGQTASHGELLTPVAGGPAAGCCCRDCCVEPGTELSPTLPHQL
Chain of FYN (P06241 whole entry): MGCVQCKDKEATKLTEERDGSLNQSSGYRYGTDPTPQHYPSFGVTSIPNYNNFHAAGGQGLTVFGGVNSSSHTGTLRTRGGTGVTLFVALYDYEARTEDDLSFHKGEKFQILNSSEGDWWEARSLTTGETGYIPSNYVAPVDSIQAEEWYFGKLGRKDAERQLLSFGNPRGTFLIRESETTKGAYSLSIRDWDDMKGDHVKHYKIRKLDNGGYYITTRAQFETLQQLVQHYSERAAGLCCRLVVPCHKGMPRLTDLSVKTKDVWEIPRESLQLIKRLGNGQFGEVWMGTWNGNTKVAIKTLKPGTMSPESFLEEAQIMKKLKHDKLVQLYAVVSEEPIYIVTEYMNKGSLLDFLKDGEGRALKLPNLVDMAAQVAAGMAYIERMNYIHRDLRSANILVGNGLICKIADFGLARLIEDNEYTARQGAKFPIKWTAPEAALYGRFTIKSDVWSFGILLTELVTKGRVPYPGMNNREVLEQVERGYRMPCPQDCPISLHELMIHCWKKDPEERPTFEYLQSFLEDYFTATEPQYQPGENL
Chain of GAK (O14976 whole entry): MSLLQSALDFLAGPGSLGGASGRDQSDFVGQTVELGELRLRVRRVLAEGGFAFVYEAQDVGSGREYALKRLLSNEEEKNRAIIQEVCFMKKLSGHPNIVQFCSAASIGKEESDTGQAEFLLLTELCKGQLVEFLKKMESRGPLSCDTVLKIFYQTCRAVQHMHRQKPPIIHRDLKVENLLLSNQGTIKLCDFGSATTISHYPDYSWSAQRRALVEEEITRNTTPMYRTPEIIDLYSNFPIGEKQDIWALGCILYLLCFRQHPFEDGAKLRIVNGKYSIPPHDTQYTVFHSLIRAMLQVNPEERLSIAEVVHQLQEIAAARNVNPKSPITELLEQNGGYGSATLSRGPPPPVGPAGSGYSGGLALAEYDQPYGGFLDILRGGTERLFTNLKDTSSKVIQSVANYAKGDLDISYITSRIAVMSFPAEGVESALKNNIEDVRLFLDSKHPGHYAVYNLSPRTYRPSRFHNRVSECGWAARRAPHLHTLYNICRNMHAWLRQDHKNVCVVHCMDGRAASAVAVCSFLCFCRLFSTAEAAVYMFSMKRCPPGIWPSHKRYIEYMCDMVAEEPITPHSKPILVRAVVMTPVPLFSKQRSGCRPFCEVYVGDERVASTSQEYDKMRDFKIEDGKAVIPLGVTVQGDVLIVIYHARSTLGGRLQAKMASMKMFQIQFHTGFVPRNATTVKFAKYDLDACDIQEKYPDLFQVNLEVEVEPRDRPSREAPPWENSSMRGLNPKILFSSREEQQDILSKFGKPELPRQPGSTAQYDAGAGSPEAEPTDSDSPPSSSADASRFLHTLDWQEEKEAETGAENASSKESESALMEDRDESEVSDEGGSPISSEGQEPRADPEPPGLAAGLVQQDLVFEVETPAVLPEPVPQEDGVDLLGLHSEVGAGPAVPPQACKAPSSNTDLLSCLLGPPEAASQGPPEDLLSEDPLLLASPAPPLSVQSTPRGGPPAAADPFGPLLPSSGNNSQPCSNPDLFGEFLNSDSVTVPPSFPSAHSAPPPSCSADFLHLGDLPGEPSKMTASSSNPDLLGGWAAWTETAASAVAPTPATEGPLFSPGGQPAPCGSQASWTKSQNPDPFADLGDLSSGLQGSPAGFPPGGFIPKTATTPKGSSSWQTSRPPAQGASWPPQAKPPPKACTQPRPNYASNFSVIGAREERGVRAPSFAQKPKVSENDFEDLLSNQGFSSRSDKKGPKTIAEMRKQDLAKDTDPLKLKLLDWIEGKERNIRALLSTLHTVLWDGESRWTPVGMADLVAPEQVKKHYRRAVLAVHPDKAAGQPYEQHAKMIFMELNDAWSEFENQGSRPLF
Chain of CDK18 (Q07002 whole entry): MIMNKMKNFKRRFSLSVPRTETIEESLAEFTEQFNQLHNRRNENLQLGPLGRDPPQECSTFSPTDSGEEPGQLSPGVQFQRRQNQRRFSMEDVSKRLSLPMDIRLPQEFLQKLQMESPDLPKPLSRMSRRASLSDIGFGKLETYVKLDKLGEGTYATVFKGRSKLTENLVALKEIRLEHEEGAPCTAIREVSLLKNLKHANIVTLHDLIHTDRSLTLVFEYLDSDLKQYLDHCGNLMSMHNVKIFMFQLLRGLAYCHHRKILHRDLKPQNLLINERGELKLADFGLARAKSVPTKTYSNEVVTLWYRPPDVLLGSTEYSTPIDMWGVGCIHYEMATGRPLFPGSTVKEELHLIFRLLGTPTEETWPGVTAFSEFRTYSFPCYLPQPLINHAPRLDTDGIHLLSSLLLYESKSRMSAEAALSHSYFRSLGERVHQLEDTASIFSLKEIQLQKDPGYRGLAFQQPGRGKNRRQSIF
Chain of CDK18 (Q8ND76 whole entry, further chain): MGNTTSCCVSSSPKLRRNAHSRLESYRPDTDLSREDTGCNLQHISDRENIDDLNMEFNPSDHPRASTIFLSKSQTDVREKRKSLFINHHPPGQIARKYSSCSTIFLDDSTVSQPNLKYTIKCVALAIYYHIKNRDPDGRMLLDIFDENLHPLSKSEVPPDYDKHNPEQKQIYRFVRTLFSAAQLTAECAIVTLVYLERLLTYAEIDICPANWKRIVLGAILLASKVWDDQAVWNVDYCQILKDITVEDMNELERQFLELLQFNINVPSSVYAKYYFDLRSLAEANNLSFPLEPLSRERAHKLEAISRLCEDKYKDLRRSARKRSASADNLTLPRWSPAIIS
Chain of AURKB (Q96GD4 whole entry): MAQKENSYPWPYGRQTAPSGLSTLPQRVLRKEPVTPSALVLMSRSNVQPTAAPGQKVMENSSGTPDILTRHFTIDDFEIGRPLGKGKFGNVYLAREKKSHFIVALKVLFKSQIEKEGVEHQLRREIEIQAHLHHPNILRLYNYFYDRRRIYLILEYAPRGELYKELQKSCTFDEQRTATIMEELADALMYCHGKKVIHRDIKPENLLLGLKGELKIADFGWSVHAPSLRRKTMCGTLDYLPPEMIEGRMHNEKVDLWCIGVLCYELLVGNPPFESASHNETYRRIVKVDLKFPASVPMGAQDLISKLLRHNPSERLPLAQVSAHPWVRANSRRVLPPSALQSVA
Chain of PHKG1 (Q16816 whole entry): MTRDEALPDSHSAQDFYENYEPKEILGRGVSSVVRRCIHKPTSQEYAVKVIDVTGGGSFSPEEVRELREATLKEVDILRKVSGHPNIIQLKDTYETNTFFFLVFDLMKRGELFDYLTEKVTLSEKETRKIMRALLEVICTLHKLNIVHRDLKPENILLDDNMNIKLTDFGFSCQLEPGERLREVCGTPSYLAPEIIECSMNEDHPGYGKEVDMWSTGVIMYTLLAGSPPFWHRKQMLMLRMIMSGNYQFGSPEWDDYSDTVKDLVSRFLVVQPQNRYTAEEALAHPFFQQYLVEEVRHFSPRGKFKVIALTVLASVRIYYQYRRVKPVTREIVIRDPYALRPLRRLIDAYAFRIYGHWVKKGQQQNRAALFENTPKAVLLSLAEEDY
Chain of MYLK2 (Q9H1R3 whole entry): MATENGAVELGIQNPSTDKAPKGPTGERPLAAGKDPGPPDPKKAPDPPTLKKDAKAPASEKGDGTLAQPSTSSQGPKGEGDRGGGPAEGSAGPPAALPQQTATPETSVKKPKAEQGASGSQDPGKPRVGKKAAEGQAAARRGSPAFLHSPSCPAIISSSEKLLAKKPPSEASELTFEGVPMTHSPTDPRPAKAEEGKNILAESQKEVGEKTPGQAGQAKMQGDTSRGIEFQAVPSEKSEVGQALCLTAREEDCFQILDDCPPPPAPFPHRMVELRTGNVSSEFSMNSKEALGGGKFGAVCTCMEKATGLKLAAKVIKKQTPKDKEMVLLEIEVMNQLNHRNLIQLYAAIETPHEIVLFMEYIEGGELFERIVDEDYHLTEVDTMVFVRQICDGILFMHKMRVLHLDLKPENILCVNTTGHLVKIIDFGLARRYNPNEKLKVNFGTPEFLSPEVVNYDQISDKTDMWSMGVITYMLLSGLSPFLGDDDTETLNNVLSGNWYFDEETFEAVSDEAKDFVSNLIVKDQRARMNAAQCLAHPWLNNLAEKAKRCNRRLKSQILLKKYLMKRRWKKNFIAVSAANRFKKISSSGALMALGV
Chain of PKMYT1 (Q99640 whole entry): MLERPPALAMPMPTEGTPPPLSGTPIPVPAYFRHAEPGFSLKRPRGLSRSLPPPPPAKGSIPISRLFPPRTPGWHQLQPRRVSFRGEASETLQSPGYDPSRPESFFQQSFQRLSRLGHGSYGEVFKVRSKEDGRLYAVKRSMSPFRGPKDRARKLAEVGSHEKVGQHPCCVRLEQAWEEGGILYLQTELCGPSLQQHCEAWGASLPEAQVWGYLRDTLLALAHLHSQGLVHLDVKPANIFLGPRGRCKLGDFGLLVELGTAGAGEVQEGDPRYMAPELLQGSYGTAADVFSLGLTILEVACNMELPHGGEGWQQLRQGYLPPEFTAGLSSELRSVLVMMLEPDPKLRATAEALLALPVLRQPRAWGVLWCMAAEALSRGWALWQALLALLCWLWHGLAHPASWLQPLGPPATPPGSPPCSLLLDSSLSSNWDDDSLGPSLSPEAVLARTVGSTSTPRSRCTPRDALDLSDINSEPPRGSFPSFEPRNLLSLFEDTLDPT

CN1C(=O)[C@@H](N2CCc3c(nn(Cc4ccccc4)c3C(N)=O)C2=O)COc2cc(Cl)ccc21 [Compound 10, (S)-2-benzyl-6-(8-chloro-5-methyl-4-oxo-2,3,4,5-tetrahydrobenzo[b][1,4]oxazepin-3-yl)-7-oxo-4,5,6,7-tetrahydro-2H-pyrazolo[3,4-c]pyridine-3-carboxamide]
receptor occupancy at 1 µM (BMP2K): -6.67% | receptor occupancy at 1 µM (RPS6KA1): 5.2% | receptor occupancy at 1 µM (STK17B): 8% | receptor occupancy at 1 µM (FYN): 5.88% | receptor occupancy at 1 µM (RPS6KA3): -0.166% | receptor occupancy at 1 µM (MYLK2): 4.26% | receptor occupancy at 1 µM (CDK18): -5.62% | receptor occupancy at 1 µM (RPS6KA6): 7.04% | receptor occupancy at 1 µM (PHKG1): -0.896% | receptor occupancy at 1 µM (IRAK4): -8.73% | receptor occupancy at 1 µM (SIK3 FL): -5.87% | receptor occupancy at 1 µM (STK4): -6.3% | receptor occupancy at 1 µM (STK33): 3.58% | receptor occupancy at 1 µM (PKMYT1): -7.45% | receptor occupancy at 1 µM (MAP3K12): -2.26% | receptor occupancy at 1 µM (AURKB): -2.1% | receptor occupancy at 1 µM (CDK17): 4.13% | receptor occupancy at 1 µM (IKBKE): 6.88% | receptor occupancy at 1 µM (MAP3K2): -2.55% | receptor occupancy at 1 µM (CAMK1): 2.97% | receptor occupancy at 1 µM (HIPK3): 11.8% | receptor occupancy at 1 µM (GAK): 0.954% | receptor occupancy at 1 µM (SBK3): -4.46% | receptor occupancy at 1 µM (SLK): 19% | receptor occupancy at 1 µM (PLK3): 2.41% | receptor occupancy at 1 µM (TNK1): -2.13% | receptor occupancy at 1 µM (CDK9): -4.57% | receptor occupancy at 1 µM (NEK11): 10.1% | receptor occupancy at 1 µM (TLK1): 26.6% | receptor occupancy at 1 µM (LATS2): 8.35% | receptor occupancy at 1 µM (NTRK1): 0.821% | receptor occupancy at 1 µM (STK36): -3.44% | receptor occupancy at 1 µM (NLK): 5.94% | receptor occupancy at 1 µM (MARK2): 16.3% | receptor occupancy at 1 µM (EPHA7): -2.24% | receptor occupancy at 1 µM (PLK2): 2.74% | receptor occupancy at 1 µM (IGF1R): -7.01%
